In patent US12064445B2, “Cytarabine conjugates for cancer therapy” (Biosight Ltd., priority 2015, dated 2024):
Like-named read-outs stand apart in the source and are kept apart here.

Assays:
[1] = Maximal tolerated dose, repeated dose IP (7 days) in mice; format: in vivo; conditions: for MTD at 7 days: TRC, mouse, in vivo
Excerpt: All mice were inspected daily during drug administration and recovery period. Clinical evaluation included mobility observations, food and water consumption. […] Hematology and biochemical blood tests were shown normal at the end of the experiment.

[2] = ICR, mouse, in vivo
Procedure: In vivo tolerability/toxicology studies were used to determine the MTD of a single dose of Astarabine® in mice (FIG. 1A) or of 14 daily repeated doses of Astarabine® in mice (FIG. 1B). The MTD was evaluated for intravenous (IV) or intraperitoneal (IP) administration.

[3] = in vivo; conditions: IRC, mouse
Procedure: IRC mice were injected with Astarabine® IV daily for 14 days in a dosage ranging from 400 mg/kg/day to 1200 mg/kg/day. Based on the results of this 14 days intravenous repeated dose study in mice, it was concluded that the IV maximal tolerated dose for Astarabine® is 400 mg/kg/day, administrated for 14 consecutive days. The total administered dose in this group was 5600 mg/kg. All measured parameters such as clinical observations, neurobehavioral observations, motor activity observations, body weight, food consumption, blood analysis and urine analysis, were within the normal range as compared to the non-treated group. Thus, Astarabine® in a concentration of 400 mg/kg/day was considered as the NOAEL (No Adverse Effect Level) in mice. In vivo tolerability/toxicology studies to determine the MTD of a single dose in mice are shown in FIG. 1A and of repeated doses in mice are shown in FIG. 1B.

[4] = system: CCRF-CEM cells; experiment: Human leukemia hollow fiber model transplanted in nude mice (CCRF-CEM); format: in vivo; conditions: 7 consecutive days
Procedure: Next, the efficacy of Astarabine® in vivo was studied on a human leukemia (Molt-4 and CCRF-CEM cells) hollow fiber model transplanted in nude mice. Astarabine® was injected at doses of 6.25 mg/mouse/day and 25 mg/mouse/day intraperitoneally (IP), daily, for 7 consecutive days; cytarabine was injected at a dose of 1.5 mg/mouse/day. Leukemia cell growth was measured using the MTT assay as described in Example 1 herein above.

[5] = system: THP-1 (Human monocytic leukemia); experiment: MTT assay, IC50 in tumor cell lines; format: cell-based; conditions: THP-1, 72 hr
Procedure: (§1) The effect of Astarabine® on different cell lines was evaluated. Briefly, various cell lines were obtained from ATCC or ECACC. Hematological cells were grown in RPMI medium containing 10-20% FBS and 1% glutamine. Solid tumor cells were grown in DMEM medium containing 10-20% FBS and 1% glutamine. Cells were seeded into 96-well plates, 50,000 cells/ml, 0.2 ml per well. Test substances were diluted in saline or PBS and added in final concentrations of 0.1 nM to 10 μM, in a volume of 20 μl. The study was conducted in triplicates, PBS was used as control. Plates were incubated for 72 hr at 37° C., 5% CO2. At the end of the exposure period, a MTT assay using the MTT reagent [3-(4,5-dimethylthiazol-2-yl)-2,5-diphenyltetrazolium bromide] was performed. MTT was added to each well at a concentration of 5 mg/ml in a volume of 0.02 ml. Plates were incubated at 37° C. for 3 h. The plates were centrifuged at 3500 rpm for 5 minutes and the supernatant was aspired. The pellets which contained MTT crystals were each dissolved in 0.2 ml DMSO. Absorbance was determined using ELISA reader at a wavelength of 570 nm.

[6] = system: MEG 01 (Human chronic myelogenous leukemia); experiment: MTT assay, IC50 in tumor cell lines; format: cell-based; conditions: MEG 01, 72 hr
Procedure: as §1

[7] = system: L1210 (Mouse DBA/2 lymphocytic leukemia); experiment: MTT assay, IC50 in tumor cell lines; format: cell-based; conditions: L1210, 72 hr
Procedure: as §1

[8] = system: P388.D1 (Mouse lymphoid macrophage); experiment: MTT assay, IC50 in tumor cell lines; format: cell-based; conditions: P388D1, P388.D1, 72 hr
Procedure: as §1

[9] = system: HepG2 (Human hepatocellular carcinoma); experiment: MTT assay, IC50 in tumor cell lines; format: cell-based; conditions: HepG2, 72 hr
Procedure: as §1

[10] = system: HL-60 (Human promyelocytic leukemia); experiment: MTT assay, IC50 in tumor cell lines; format: cell-based; conditions: HL-60, 72 hr
Procedure: as §1

[11] = system: Molt-4 (Human acute lymphoblastic leukemia); experiment: MTT assay, IC50 in tumor cell lines; format: cell-based; conditions: Molt-4, 72 hr
Procedure: as §1

[12] = system: K562 (Human chronic myelogenous leukemia); experiment: MTT assay, IC50 in tumor cell lines; format: cell-based; conditions: K562, 72 hr
Procedure: as §1

[13] = system: Kasumi-1 (Human acute myeloblastic leukemia); experiment: MTT assay, IC50 in tumor cell lines; format: cell-based; conditions: Kasumi-1, 72 hr
Procedure: as §1

[14] = system: CCRF-CEM (Human acute lymphoblastic leukemia T lympoblastoid line); experiment: MTT assay, IC50 in tumor cell lines; format: cell-based; conditions: 72 hr
Procedure: as §1

[15] = system: RS 4:11 (Human acute lymphoblastic leukemia); experiment: MTT assay, IC50 in tumor cell lines; format: cell-based; conditions: RS4-11, RS 4:11, 72 hr
Procedure: as §1

[16] = system: SU DHL-1 (Human large cell lymphoma); experiment: MTT assay, IC50 in tumor cell lines; format: cell-based; conditions: SU DHL-1, 72 hr
Procedure: as §1

[17] = system: A2780 (Human ovarian carcinoma); experiment: MTT assay, IC50 in tumor cell lines; format: cell-based; conditions: A2780, 72 hr
Procedure: as §1

[18] = system: SU DHL-5 (Human B-cell non Hodgkin's lymphoma); experiment: MTT assay, IC50 in tumor cell lines; format: cell-based; conditions: SU DHL-5, 72 hr
Procedure: as §1

[19] = system: CCRF-SB (Human acute lymphoblastic leukemia); experiment: MTT assay, IC50 in tumor cell lines; format: cell-based; conditions: 72 hr
Procedure: as §1

[20] = system: NCIH727 (Human lung non small cell carcinoma); experiment: MTT assay, IC50 in tumor cell lines; format: cell-based; conditions: NCI-H727, NCIH727, 72 hr
Procedure: as §1

For N[C@@H](CC(=O)Nc1ccn([C@@H]2O[C@H](CO)[C@@H](O)[C@@H]2O)c(=O)n1)C(=O)O [Astarabine®], the Gross necropsy ([1]; IP 7 days, 156 to 781 mg/kg/day) was “no abnormal findings”, the “Hematology and biochemical blood tests” value ([1]; IP 7 days, 156 to 781 mg/kg/day, end of experiment) was “normal” and the MTD at 7 days ([1]; 781 mg/kg/day IP for 7 days, read-out: Accumulative dose at MTD) was 5470 mg/kg. The MTD at 7 days ([1]; IP for 7 days, read-out: MTD (maximal tolerated dose)) was 781 mg/kg/day, the “Reduction of toxicity in animals compared to the reported toxicity of cytarabine” value [2] was 10-20 fold and the “IV maximal tolerated dose” value ([3]; 14 days) was 400 mg/kg/day. For the same compound, the NOAEL at 14 days ([3]; iv) was 400 mg/kg/day, the MTD at 14 days ([3]; iv, 400 mg/kg/day) was 5600 mg/kg and the “Inhibition of growth of CCRF-CEM cells” value ([4]; 6.25 mg/mouse/day IP) was 71.9%. For the same compound, the “Inhibition of growth of CCRF-CEM cells” value ([4]; 25 mg/mouse/day IP) was 72.0%, the IC50 [5] was 7.1 to 52 µM and the IC50 [6] was 1.7 µM. For the same compound, the IC50 [7] was 0.0394 to 0.116 µM, the IC50 [8] was 1.9 to 2.6 µM and the IC50 [9] was 7 to 7.5 µM. It also gave an IC50 [10] of 0.256 to 0.276 µM, an IC50 [11] of 0.004 to 0.024 µM and an IC50 [12] of 0.194 to 0.516 µM. For the same compound, the IC50 [13] was 7.6 µM, the IC50 [14] was 0.0233 to 0.0408 µM and the IC50 [15] was 0.0271 µM. The IC50 [16] was 0.314 to 0.335 µM, the IC50 [17] was 0.457 µM and the IC50 [18] was 0.196 µM. It also gave an IC50 [19] of 11 to 21.4 µM and an IC50 [20] of 1.3 to 2.8 µM.
